Tests used:
Type in all cases: in vivo
[1] = test system: Viola; experiment: Pre-emergence test/greenhouse, Viola; settings: 500 g of ai./ha, after three weeks
Procedure: (§1) Solvent: 5 parts by weight of acetone
(§2) Emulsifier: 1 part by weight of alkylaryl polyglycol ether
(§3) To produce a suitable preparation of active compound, 1 part by weight of active compound is mixed with the stated amount of solvent, the stated amount of emulsifier is added and the concentrate is diluted with water to the desired concentration.
(§4) Seeds of the test plants are sown in normal soil. After about 24 hours, the soil is sprayed with the preparation of active compound such that the particular amount of active compound desired is applied per unit area. The concentration of the spray liquor is chosen so that the particular amount of active compound desired is applied in 1000 liters of water per hectare.
(§5) After three weeks, the degree of damage to the plants is rated in % damage in comparison to the development of the untreated control.
(§6) 0%=no effect (like untreated control)

[2] = test system: barley; experiment: Pre-emergence test/greenhouse, barley; settings: 500 g of ai./ha, after three weeks
Procedure: as §1, §2, §3, §4, §5, §6

[3] = test system: Setaria; experiment: Pre-emergence test/greenhouse, Setaria; settings: 500 g of ai./ha, after three weeks
Procedure: as §1, §2, §3, §4, §5, §6

[4] = test system: Digitaria; experiment: Pre-emergence test/greenhouse, Digitaria; settings: 500 g of ai./ha, after three weeks
Procedure: as §1, §2, §3, §4, §5, §6

[5] = test system: Solanum; experiment: Pre-emergence test/greenhouse, Solanum; settings: 500 g of ai./ha, after three weeks
Procedure: as §1, §2, §3, §4, §5, §6

[6] = test system: Veronica; experiment: Pre-emergence test/greenhouse, Veronica; settings: 504 h, 500 g of ai./ha, after three weeks, read-out: degree of damage, Veronica
Procedure: as §1, §2, §3, §4, §5, §6

[7] = test system: cotton; experiment: Pre-emergence test/greenhouse, cotton; settings: 500 g of ai./ha, after three weeks
Procedure: as §1, §2, §3, §4, §5, §6

[8] = test system: soya; experiment: Pre-emergence test/greenhouse, soya; settings: 500 g of ai./ha, after three weeks
Procedure: as §1, §2, §3, §4, §5, §6

[9] = test system: Amaranthus; experiment: Pre-emergence test/greenhouse, Amaranthus; settings: 500 g of ai./ha, after three weeks
Procedure: as §1, §2, §3, §4, §5, §6

[10] = test system: wheat; experiment: Pre-emergence test/greenhouse, wheat; settings: 500 g of ai./ha, after three weeks
Procedure: as §1, §2, §3, §4, §5, §6

[11] = test system: Cyperus; experiment: Pre-emergence test/greenhouse, Cyperus; settings: 500 g of ai./ha, after three weeks
Procedure: as §1, §2, §3, §4, §5, §6

[12] = test system: Matricaria; experiment: Pre-emergence test/greenhouse, Matricaria; settings: 500 g of ai./ha, after three weeks
Procedure: as §1, §2, §3, §4, §5, §6

[13] = test system: maize; experiment: Pre-emergence test/greenhouse, maize; settings: 500 g of ai./ha, after three weeks
Procedure: as §1, §2, §3, §4, §5, §6

[14] = test system: Chenopodium; experiment: Pre-emergence test/greenhouse, Chenopodium; settings: 500 g of ai./ha, after three weeks
Procedure: as §1, §2, §3, §4, §5, §6

[15] = test system: Setaria; experiment: Post-emergence test/greenhouse, Setaria; settings: 500 g of ai./ha, after three weeks
Procedure: as §1, §2, §3
(§7) Test plants of a height of 5-15 cm are sprayed with the preparation of active compound such that the particular amounts of active compound desired are applied per unit area. The concentration of the spray liquor is chosen so that the particular amounts of active compound desired are applied in 1000 l of water/ha.
as §5, §6

[16] = test system: barley; experiment: Post-emergence test/greenhouse, barley; settings: 500 g of ai./ha, after three weeks
Procedure: as §1, §2, §3, §7, §5, §6

[17] = test system: wheat; experiment: Post-emergence test/greenhouse, wheat; settings: 500 g of ai./ha, after three weeks
Procedure: as §1, §2, §3, §7, §5, §6

[18] = test system: Datura; experiment: Post-emergence test/greenhouse, Datura; settings: 500 g of ai./ha, after three weeks
Procedure: as §1, §2, §3, §7, §5, §6

[19] = test system: Ipomoea; experiment: Post-emergence test/greenhouse, Ipomoea; settings: 500 g of ai./ha, after three weeks
Procedure: as §1, §2, §3, §7, §5, §6

[20] = test system: Solanum; experiment: Post-emergence test/greenhouse, Solanum; settings: 500 g of ai./ha, after three weeks
Procedure: as §1, §2, §3, §7, §5, §6

[21] = test system: Viola; experiment: Post-emergence test/greenhouse, Viola; settings: 500 g of ai./ha, after three weeks
Procedure: as §1, §2, §3, §7, §5, §6

[22] = test system: weeds; experiment: Pre-emergence test, activity against weeds; settings: result in words
Procedure: as §1, §2, §3, §4, §5, §6

[23] = test system: crop plants, such as, for example, cotton, maize, wheat and barley; experiment: Pre-emergence test, tolerance by crop plants; settings: result in words
Procedure: as §1, §2, §3, §4, §5, §6

[24] = test system: weeds; experiment: Post-emergence test, activity against weeds; settings: result in words
Procedure: as §1, §2, §3, §7, §5, §6

[25] = test system: crop plants, such as, for example, maize, barley and wheat; experiment: Post-emergence test, tolerance by crop plants; settings: result in words
Procedure: as §1, §2, §3, §7, §5, §6

In the case of `CCC(CCc1cc(Br)cs1)Nc1nc(NC(C)=O)nc(C(C)F)n1` (stereo not shown) [drawing 248], the “degree of damage, Viola” value [1] is reported as 100%, the “degree of damage, barley” value [2] is reported as 0% and the “degree of damage, Setaria” value [3] is reported as 95%.
For `CCC(CCc1sccc1Br)Nc1nc(N)nc(C(C)F)n1` (stereo not shown) [drawing 241], the “degree of damage, Digitaria” value [4] was 100%, the “degree of damage, Solanum” value [5] was 100% and the pest or weed control at 500 g/ha [6] was 100%.
`CCC(CCc1sccc1Br)Nc1nc(NC(C)=O)nc(C(C)F)n1` (stereo not shown) [drawing 262] was tested, and the “degree of damage, cotton” value [7] was 0%.
For `CCC(CCc1cc(C)sc1C)Nc1nc(N)nc(C(C)F)n1` (stereo not shown) [drawing 263], the “degree of damage, soya” value [8] was 0%.
`CCC(CCc1sccc1Br)Nc1nc(NC(C)=O)nc(C(C)F)n1` (stereo not shown) [drawing 232] was tested, and the “degree of damage, Amaranthus” value [9] was 100% and the “degree of damage, wheat” value [10] was 0%.
For `CCC(CCc1sccc1Br)Nc1nc(N)nc(C(C)(C)F)n1` (stereo not shown) [drawing 250], the “degree of damage, Cyperus” value [11] was 100% and the “degree of damage, Matricaria” value [12] was 100%.
For `CCC(CCc1cc(C)sc1C)Nc1nc(N)nc(C(C)F)n1` (stereo not shown) [drawing 233], the “degree of damage, maize” value [13] was 0%, the “degree of damage, Amaranthus” value [9] was 100% and the “degree of damage, wheat” value [10] was 0%.
With `CCC(CCc1ccc(Br)s1)Nc1nc(N)nc(C(C)(C)F)n1` (stereo not shown) [drawing 227] the “degree of damage, maize” value [13] was 0% and the “degree of damage, wheat” value [10] was 0%.
With `CCC(CCc1cc(C)sc1C)Nc1nc(NC(C)=O)nc(C(C)(C)F)n1` (stereo not shown) [drawing 244] the pest or weed control at 500 g/ha [6] was 100%.
In the case of `CCC(CCc1sccc1Br)Nc1nc(NC(C)=O)nc(C(C)F)n1` (stereo not shown) [drawing 252], the “degree of damage, Matricaria” value [12] is reported as 100%.
For `CCC(CCc1cc(Br)cs1)Nc1nc(NC(C)=O)nc(C(C)F)n1` (stereo not shown) [drawing 228], the “degree of damage, maize” value [13] was 0%.
In the case of `CCC(CCc1cc(C)sc1C)Nc1nc(N)nc(C(C)F)n1` (stereo not shown) [drawing 253], the “degree of damage, Viola” value [1] is reported as 100%.
For `CCC(CCc1cc(Br)cs1)Nc1nc(NC(C)=O)nc(C(C)(C)F)n1` (stereo not shown) [drawing 239], the “degree of damage, Digitaria” value [4] was 100%, the “degree of damage, Chenopodium” value [14] was 100% and the “degree of damage, Solanum” value [5] was 100%. It also gave a pest or weed control at 500 g/ha [6] of 100%.
With `CCC(CCc1sccc1Br)Nc1nc(N)nc(C(C)(C)F)n1` (stereo not shown) [drawing 230] the “degree of damage, Amaranthus” value [9] was 100%.
`CCC(CCc1sccc1Br)Nc1nc(N)nc(C(C)(C)F)n1` (stereo not shown) [drawing 240] was tested, and the pest or weed control at 500 g/ha [6] was 100%.
In the case of `CCC(CCc1ccc(Br)s1)Nc1nc(N)nc(C(C)(C)F)n1` (stereo not shown) [drawing 237], the “degree of damage, Digitaria” value [4] is reported as 100%, the “degree of damage, Chenopodium” value [14] is reported as 100% and the “degree of damage, Solanum” value [5] is reported as 100%. It also gave a pest or weed control at 500 g/ha [6] of 100%.
With `CCC(CCc1ccc(Br)s1)Nc1nc(N)nc(C(C)F)n1` (stereo not shown) [drawing 246] the “degree of damage, Viola” value [1] was 100%.
With `CCC(CCc1ccc(Br)s1)Nc1nc(N)nc(C(C)F)n1` (racemic) [Example 4] the “degree of damage, Setaria” value [15] was 80%, the “degree of damage, barley” value [16] was 0% and the “degree of damage, wheat” value [17] was 0%. For the same compound, the “degree of damage, Datura” value [18] was 95%, the “degree of damage, Ipomoea” value [19] was 95% and the “degree of damage, Solanum” value [20] was 95%. The “degree of damage, Viola” value [21] was 100%, the activity against weeds [22] was “strong activity against weeds” and the “tolerance by crop plants” value [23] was “largely tolerated well”. For the same compound, the activity against weeds [24] was “strong activity against weeds” and the “tolerance by crop plants” value [25] was “tolerated well”.

From patent publication US6420313B1, “Thienylalkylamino-1,3,5-triazines and the use thereof as herbicides” (Bayer Aktiengesellschaft, priority 1998, dated 2002)
